Assay results taken from patent US20230066156A1, “6-SUBSTITUTED, 22-CYANO HYODEOXYCHOLANIC ANALOGUES AND USES THEREOF” (PRECISION BIO-THERAPEUTICS S.R.L., priority 2019, published 2023).

Molecular target: T1, FXR (Homo sapiens, UniProt Q96RI1)
T1 construct: expressed in transfected cells; host or cells: HepG2
T1 sequence (Q96RI1 1-486): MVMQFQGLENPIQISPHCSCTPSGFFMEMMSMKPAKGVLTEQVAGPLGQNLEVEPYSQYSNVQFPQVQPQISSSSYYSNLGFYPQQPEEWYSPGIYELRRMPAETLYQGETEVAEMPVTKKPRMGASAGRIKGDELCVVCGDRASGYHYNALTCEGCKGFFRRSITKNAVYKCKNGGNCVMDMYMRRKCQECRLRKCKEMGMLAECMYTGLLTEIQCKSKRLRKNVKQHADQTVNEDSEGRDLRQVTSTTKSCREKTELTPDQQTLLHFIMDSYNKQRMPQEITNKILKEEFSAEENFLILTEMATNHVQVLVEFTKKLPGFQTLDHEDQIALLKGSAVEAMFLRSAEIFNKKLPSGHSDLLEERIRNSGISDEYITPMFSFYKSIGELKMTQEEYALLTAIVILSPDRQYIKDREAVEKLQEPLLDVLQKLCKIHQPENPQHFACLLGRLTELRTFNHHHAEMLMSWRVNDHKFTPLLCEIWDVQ
T1 sequence (P19793 1-462 partner): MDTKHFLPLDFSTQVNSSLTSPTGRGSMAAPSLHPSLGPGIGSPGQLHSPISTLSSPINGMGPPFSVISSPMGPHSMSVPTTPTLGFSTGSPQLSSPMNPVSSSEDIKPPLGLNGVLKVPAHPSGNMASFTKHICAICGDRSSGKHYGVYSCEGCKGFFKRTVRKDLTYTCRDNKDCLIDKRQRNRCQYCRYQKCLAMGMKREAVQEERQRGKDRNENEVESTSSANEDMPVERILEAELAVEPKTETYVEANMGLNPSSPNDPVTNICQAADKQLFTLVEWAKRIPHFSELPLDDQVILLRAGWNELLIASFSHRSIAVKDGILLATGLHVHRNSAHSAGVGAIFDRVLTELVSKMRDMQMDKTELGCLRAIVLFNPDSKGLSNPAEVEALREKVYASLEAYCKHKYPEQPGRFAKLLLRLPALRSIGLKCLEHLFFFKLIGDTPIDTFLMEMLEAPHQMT
Test: FXR mediated transactivation, IR1 (hsp27)-luciferase reporter in transfected HepG2 cells
Type: cell-based
Details: compound at 10 μM, HepG2, vs maximal transactivation by CDCA 10 μM, triplicate
Method: Selected compounds were tested in vitro on FXR and TGR5/GPBAR1 receptors (Table 1) using a whole cell model transfected with a reporter genes. The activity was evaluated in comparison with chenodeoxycholic acid (CDCA) and TLCA.
CDCA is a primary bile acid that functions as an endogenous ligand for FXR, while TLCA is a physiological ligand for TGR5/GPBAR1. In this assay, HepG2 cells (a liver-derived cell line) were cultured at 37° C. in minimum essential medium with Earl's salts containing 10% fetal bovine serum (FBS), 1% L-glutamine, and 1% penicillin/streptomycin. HEK-293T cells were cultured at 37° C. in D-MEM containing 10% fetal bovine serum (FBS), 1% L-glutamine, and 1% penicillin/streptomycin. The transfection experiments were performed using Fugene HD according to manufactured specifications. Cells were plated in a 24-well plate at 5×10^4 cells/well. For FXR mediated transactivation, HepG2 cells were transfected with 100 ng of pSG5-FXR, 100 ng of pSG5-RXR, 100 ng of pGL4.70 a vector encoding the human Renilla gene and 250 ng of the reporter vector p(hsp27)-TK-LUC containing the FXR response element IR1 cloned from the promoter of heat shock protein 27 (hsp27).
The data on the activity of certain compounds of the invention on TGR5/GPBAR1 are described in the following table 1. In this table, activities for compounds of the invention on GPBAR1 was compared to those of the reference compound TLCA. For % of activity, each compound was tested at the concentration of 10 microM and transactivation activity of TLCA on CRE (i.e. TGR5/GPBAR1) was considered equal to 100%. For selectivity toward FXR, activity was assessed in HepG2 cells transfected with an FXR responsive element (IR1) cloned upstream to the luciferase gene. For calculation of efficacy data, maximal transactivation of IR1 caused by each compound (10 μM) was compared to maximal transactivation caused by CDCA (10 μM). GPBAR1/FXR selectivity calculated as ratio between % of activity toward GPBAR1 and % of activity toward FXR. Each experiment was conducted in triplicate.

CC[C@]1(O)C[C@H]2[C@@H]3CC[C@H]([C@H](C)CC#N)[C@@]3(C)CC[C@@H]2[C@@]2(C)CC[C@@H](O)C[C@@H]12 [PBT110B, 3α,6α-dihydroxy-6β-ethyl-24-nor-5β-cholan-23-nitrile]
FXR (% of activity in comparison to 10 μM CDCA): 12.3 ± 0.47%
